Laboratory results: paper PMC4648050, “Discovery of Inhibitors of Trypanosoma brucei by Phenotypic Screening of a Focused Protein Kinase Library” (Chemmedchem, 2015)

Experiments:
Type in all cases: biochemical, human/mammalian
Details in all cases: compound at 10 μM, read-out: % of activity respect of the control
FGF-R1 = FGF-R1 (Homo sapiens, UniProt P11362); experiment: Kinase panel: FGF-R1
Description: (§1) The DDU kinase-focused compound set contains lead-like scaffolds that are designed to target protein kinases; they have kinase hinge binding motifs. Four of the 1H-imidazopyrazinones were screened against a human/mammalian kinase panel at the University of Dundee (http://www.kinase-screen.mrc.ac.uk) at a concentration of 10 μM. At the time of testing the panel contained 79 mammalian kinases selected to provide a broad coverage of the mammalian kinome (∼500 kinases in the human genome).[3] None of the compounds were active against any of the kinases at 10 μM.

YES1 = YES1 (Homo sapiens, UniProt P07947); experiment: Kinase panel: YES1
Description: as §1

PAK4 = PAK4 (Homo sapiens, UniProt O96013); experiment: Kinase panel: PAK4
Description: as §1

EPH-B3 = target: T1, EPH-B3 (Homo sapiens, UniProt P54753); experiment: Kinase panel: EPH-B3
T1 sequence (P54753 34-998): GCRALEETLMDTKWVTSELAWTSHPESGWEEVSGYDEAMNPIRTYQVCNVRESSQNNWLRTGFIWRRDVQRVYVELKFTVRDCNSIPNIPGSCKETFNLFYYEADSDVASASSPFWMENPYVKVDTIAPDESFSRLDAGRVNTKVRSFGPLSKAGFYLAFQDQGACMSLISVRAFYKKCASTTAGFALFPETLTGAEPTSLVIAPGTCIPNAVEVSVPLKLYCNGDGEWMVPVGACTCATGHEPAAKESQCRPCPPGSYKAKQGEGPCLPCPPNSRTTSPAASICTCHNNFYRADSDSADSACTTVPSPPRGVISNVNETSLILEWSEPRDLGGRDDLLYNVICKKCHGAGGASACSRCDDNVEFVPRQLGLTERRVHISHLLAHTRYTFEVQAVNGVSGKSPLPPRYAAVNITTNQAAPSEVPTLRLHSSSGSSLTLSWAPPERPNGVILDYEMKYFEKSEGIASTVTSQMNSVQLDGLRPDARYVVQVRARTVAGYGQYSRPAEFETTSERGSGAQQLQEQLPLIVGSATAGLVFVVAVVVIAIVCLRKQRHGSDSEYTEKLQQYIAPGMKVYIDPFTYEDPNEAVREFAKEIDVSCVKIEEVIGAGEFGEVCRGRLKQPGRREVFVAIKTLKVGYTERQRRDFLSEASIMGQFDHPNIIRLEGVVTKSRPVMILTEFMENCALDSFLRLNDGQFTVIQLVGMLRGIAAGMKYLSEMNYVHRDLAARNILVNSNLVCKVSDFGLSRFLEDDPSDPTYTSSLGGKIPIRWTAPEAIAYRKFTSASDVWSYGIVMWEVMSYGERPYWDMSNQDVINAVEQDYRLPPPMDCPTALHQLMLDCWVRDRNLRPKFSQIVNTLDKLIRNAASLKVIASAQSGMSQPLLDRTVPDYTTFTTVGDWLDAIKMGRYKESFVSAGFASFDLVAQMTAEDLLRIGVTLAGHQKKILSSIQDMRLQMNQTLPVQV
Description: as §1

PKD1 = target: T2, PKD1 (Homo sapiens, UniProt Q15139); experiment: Kinase panel: PKD1
T2 sequence (Q15139 1-912): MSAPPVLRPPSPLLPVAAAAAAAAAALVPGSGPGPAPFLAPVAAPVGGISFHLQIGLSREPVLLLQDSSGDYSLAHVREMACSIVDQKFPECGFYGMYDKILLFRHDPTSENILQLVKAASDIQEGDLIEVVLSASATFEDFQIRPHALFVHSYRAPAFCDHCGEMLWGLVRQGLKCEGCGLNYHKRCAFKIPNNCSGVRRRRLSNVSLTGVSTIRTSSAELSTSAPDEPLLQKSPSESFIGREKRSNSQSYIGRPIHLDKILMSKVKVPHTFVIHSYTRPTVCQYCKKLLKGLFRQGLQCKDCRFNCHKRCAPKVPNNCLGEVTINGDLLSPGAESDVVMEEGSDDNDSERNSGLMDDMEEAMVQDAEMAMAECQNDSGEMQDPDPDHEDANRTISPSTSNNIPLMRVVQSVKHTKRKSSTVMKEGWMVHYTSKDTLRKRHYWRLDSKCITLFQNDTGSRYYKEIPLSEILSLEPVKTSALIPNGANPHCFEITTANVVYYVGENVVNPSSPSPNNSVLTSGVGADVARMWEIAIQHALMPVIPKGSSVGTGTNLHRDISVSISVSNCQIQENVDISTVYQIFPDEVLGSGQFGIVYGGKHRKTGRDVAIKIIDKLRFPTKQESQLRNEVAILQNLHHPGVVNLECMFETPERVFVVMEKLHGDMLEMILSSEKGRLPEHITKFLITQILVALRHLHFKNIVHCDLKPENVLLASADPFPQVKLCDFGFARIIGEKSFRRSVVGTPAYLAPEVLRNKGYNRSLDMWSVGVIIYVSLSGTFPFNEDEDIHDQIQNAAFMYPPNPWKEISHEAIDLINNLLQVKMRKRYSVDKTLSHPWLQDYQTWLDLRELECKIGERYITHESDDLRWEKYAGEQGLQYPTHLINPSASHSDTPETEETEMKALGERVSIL
Description: as §1

PKC zeta = target: T3, PKC zeta (Homo sapiens, UniProt Q05513); experiment: Kinase panel: PKC zeta
T3 sequence (Q05513 1-592): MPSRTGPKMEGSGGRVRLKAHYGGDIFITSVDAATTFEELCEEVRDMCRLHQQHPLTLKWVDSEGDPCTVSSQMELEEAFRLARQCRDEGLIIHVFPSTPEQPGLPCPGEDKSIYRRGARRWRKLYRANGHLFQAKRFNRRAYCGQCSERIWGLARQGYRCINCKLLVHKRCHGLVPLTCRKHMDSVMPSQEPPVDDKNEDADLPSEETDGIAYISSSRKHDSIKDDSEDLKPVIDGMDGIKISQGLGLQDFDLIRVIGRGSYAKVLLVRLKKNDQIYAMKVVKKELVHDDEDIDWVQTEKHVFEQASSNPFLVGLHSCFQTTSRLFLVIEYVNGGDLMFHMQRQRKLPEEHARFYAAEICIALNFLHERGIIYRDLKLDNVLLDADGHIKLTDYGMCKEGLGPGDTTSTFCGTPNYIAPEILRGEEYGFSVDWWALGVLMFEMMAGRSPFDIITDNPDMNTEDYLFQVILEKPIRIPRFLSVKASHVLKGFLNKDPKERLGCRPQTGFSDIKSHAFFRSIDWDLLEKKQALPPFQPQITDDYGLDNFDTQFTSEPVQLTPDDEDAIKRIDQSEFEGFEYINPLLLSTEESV
Description: as §1

Sequence of YES1 (P07947 whole entry): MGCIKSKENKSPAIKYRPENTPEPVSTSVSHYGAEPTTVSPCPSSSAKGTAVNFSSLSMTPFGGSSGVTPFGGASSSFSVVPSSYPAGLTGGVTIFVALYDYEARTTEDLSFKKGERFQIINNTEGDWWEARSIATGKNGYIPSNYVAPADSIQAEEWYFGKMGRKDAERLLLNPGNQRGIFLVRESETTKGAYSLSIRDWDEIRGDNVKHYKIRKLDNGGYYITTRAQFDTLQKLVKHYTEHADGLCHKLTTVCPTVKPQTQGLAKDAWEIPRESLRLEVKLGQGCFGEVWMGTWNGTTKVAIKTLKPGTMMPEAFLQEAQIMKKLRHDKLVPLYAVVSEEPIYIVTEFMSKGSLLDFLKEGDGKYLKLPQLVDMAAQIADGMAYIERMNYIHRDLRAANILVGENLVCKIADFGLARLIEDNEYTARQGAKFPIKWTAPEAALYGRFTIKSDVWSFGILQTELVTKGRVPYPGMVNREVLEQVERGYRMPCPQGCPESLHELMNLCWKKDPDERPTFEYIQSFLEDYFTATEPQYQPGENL
Sequence of PAK4 (O96013 whole entry): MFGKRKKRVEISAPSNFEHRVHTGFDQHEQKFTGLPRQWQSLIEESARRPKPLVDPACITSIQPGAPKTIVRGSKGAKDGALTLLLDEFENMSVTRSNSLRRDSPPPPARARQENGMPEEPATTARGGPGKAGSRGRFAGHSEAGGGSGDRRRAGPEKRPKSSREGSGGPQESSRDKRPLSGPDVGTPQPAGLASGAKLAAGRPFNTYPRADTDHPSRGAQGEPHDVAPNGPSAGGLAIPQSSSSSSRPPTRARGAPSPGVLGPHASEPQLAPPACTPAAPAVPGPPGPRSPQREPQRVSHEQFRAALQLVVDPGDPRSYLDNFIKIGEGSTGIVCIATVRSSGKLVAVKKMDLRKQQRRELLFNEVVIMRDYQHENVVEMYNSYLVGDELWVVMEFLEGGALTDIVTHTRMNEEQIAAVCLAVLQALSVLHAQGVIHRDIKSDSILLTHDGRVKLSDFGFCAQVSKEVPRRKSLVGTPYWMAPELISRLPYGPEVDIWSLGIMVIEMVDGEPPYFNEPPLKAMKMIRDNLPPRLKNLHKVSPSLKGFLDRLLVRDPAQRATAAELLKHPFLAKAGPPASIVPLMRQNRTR
Sequence of FGF-R1 (P11362 22-822): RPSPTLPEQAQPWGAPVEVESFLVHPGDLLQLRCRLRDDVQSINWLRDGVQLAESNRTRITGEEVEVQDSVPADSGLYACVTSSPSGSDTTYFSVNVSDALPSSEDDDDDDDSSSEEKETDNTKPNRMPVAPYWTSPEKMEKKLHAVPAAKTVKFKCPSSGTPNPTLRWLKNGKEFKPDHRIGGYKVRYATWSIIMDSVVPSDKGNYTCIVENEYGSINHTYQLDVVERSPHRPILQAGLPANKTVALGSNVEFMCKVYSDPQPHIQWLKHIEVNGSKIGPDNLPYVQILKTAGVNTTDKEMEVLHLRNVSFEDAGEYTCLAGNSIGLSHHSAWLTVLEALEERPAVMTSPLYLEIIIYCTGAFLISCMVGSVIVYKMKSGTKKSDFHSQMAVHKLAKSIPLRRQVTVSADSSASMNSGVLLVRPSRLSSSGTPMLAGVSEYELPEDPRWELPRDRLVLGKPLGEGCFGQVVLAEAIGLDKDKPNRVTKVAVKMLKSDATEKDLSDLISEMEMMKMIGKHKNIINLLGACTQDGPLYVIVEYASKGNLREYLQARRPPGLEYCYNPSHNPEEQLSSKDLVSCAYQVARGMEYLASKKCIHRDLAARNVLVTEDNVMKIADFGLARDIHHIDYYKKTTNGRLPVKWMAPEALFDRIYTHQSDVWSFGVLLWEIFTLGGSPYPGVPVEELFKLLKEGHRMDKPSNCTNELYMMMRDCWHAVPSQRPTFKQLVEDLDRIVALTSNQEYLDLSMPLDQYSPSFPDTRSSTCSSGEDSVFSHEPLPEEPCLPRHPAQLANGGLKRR

Structure (SMILES) | remaining activity at 10 µM (FGF-R1) [%] | remaining activity at 10 µM (YES1) [%] | remaining activity at 10 µM (PAK4) [%] | remaining activity at 10 µM (EPH-B3) [%] | remaining activity at 10 µM (PKD1) [%] | remaining activity at 10 µM (PKC zeta) [%]
CC(c1ccccc1)n1c(=O)[nH]c2ncc(-c3ccc(F)cc3)nc21 (stereo not drawn) [Compound 1] | 95 | 94 | 101 | 113 | 55 | 94
O=c1[nH]c2ncc(-c3ccc(F)cc3)nc2n1CC1CC1 [Compound 10] | 88 | 96 | 106 | 92 | 40 | 90
O=c1[nH]c2ncc(-c3ccc(F)cc3)nc2n1C1CCCCC1 [Compound 12, 1-Cyclohexyl-6-(4-fluorophenyl)-1H-imidazo[4,5-b]pyrazin-2(3H)-one] | 96 | 96 | 103 | 110 | 60 | 90
C[C@H](c1ccccc1)n1c(=O)[nH]c2ncc(-c3ccccc3)nc21 [Compound 14, (R)-6-Phenyl-1-(1-phenylethyl)-1H-imidazo[4,5-b]pyrazin-2(3H)-one] | 63 | 71 | 86 | 102 | 44 | 88
